The text below walks through data of ChEMBL document CHEMBL3832544, “DailyMed|setid=fb8a2e5b-fd23-4977-81de-a95f4af168e2 | ONMEL- itraconazole tablet|Merz Pharmaceuticals, LLC”.

The Cmax is the highest concentration seen after dosing. The term AUC denotes concentration integrated over time. Broadly, the Tmax is the time from dosing to the highest level. By AUC(0-inf) is commonly meant total exposure, with the tail of the curve extrapolated.

Molecules are shown by their SMILES.

Holding throughout (assay type): ADME, organism-based
What all share (design): dose 200 mg, route oral

Data set [1] is described as follows: (§1) The pharmacokinetic parameters of Itraconazole after single oral administration of 200 mg Itraconzole to 9 male and 9 female healthy subjects in fasting and in fed conditions. To be noted: both, human, in vivo, dietary status Fed, dosed compound id 2, dosed compound name ITRACONAZOLE, gender male and female, regimen Single dose, tissue Plasma.
In data set [2] the test system is Homo sapiens. Described as §1. To be noted: in vivo, po, dietary status Fasted, dosed compound id 2, dosed compound name ITRACONAZOLE, gender male and female, regimen Single dose, tissue Plasma.
A short description of data set [3]: (§2) The steady-state pharmacokinetics of itraconazole analyzed after multiple oral dosing of 16 healthy volunteers with 200 mg Itraconazole following a moderate-fat breakfast once daily for 14 days in an open-label study. To be noted: human, in vivo, dietary status Fed with moderate-fat breakfast, dose 200 mg, dosed compound id 2, dosed compound name ITRACONAZOLE, gender male and female, regimen Multiple dose, route oral, tissue Plasma.

Data set [4] has as its system Homo sapiens. The description is as §2. The following applies: in vivo, po, 336 h, dietary status Fed with moderate-fat breakfast, dosed compound id 2, dosed compound name ITRACONAZOLE, gender male and female, regimen Multiple dose, tissue Plasma.

Turning to `CCC(C)n1ncn(-c2ccc(N3CCN(c4ccc(OCC5COC(Cn6cncn6)(c6ccc(Cl)cc6Cl)O5)cc4)CC3)cc2)c1=O` (configuration not stated) [ITRACONAZOLE], the Cmax in data set [1] (po, 200 mg) came to 213 ng/mL; with Homo sapiens [2] it was 162 ng/mL. In addition, the AUC in data set [1] (po, 200 mg, read-out: AUC(0-inf)) came out at 3340 ng·h/mL. Besides, the Tmax was determined as 4.6 h in data set [1] (dose 200 mg, route oral); 2.9 h in the data set with Homo sapiens [2] (dose 200 mg); 4 h in data set [3] (study dosing duration 1 day). Moreover, in the data set with Homo sapiens [2], the “AUC(0-inf)” value was 2270 ng·h/mL. Moreover, the half-life in data set [3] (study dosing duration 14 day, read-out: t1/2 ss (converted)) is 36.8 h. For the same compound, the figures for the “AUC(0-24)” value in the data set on Homo sapiens [4] (study dosing duration 1 day) and with Homo sapiens [4] (study dosing duration 14 day) were 905.09 ng·h/mL and 9046.81 ng·h/mL, respectively. For the same compound, the Cmax ss with Homo sapiens [4] (study dosing duration 1 day) turned out to be 116.8 ng/mL; in the data set with Homo sapiens [4] (study dosing duration 14 day) it was 658.1 ng/mL.
